Assay results reported in paper PMC9137037 (Frontiers in Oncology, 2022).
Read-outs that look alike come from different tables or passages of the source. Where no end group is shown, it is not given here.

Assays:
[1] = Toxicokinetics of APi2568 in monkey plasma (UHPLC-MS/MS); type: in vivo, cynomolgus monkey; conditions: for Cmax: UHPLC-MS/MS; for accumulation ratio (RA): TK profiles on days 1 and 43
Experimental: (§1) The non-human primate studies were carried out by the Charles River Laboratories (Ashland, OH USA). All the cynomolgus monkeys (Macaca fascicularis of Chinese origin) were obtained from Charles River Laboratories (Houston, TX, USA). In brief, the animals were approximately 2–4 years old and at the body weight between 2.2 and 3.1 kg at the initial dosing. The animals were kept at the temperature between 19°C and 24°C, humidity 30%–70%, and with 12 h light and 12 h dark light cycle. The Good manufacturing practice (GMP)-manufactured vaccine was used in the non-human primate study. […] Similar to mouse and dog dosing preparation, after the emulsion was prepared, a drop test was performed on each time of dosing to confirm that the emulsion had been prepared properly. […] The dose volume was split approximately equally across two different sites; 0.5 ml of the dose was intramuscularly (IM) injected into the right posterior lateral thigh, the left dosing was injected into the left site. All the animals’ body weights were monitored weekly after receiving. After each immunization, the animal body temperature was tested 6 and 24 h post each immunization. […] The animal bleed were collected before each time of immunization to monitor the antibody titers. There were two sets of non-human primate studies conducted. The first set of monkey study No.00213515 had 24 monkeys, 12 males, and 12 females divided into 4 groups: vehicle control, low dose 0.5 mg, medium dose 2 mg, and high dose 5 mg. There were 16 monkeys (8 males and 8 females) in the second set of monkey study No. 00213519. The monkeys in the four groups were vaccinated as follows: vehicle control, low dose 25 μg, medium dose 100 μg, and high dose 250 μg.
For the determination of TK parameters, blood samples were collected at various times after dosing analyzed using a validated UHPLC-MS/MS (ultra-high-performance liquid chromatography with tandem mass spectrometry) method, for the quantification of APi2568 in monkey plasma.

[2] = test system: cynomolgus monkeys; assay: GLP repeat-dose toxicology, first monkey study No.00213515; type: in vivo, Macaca fascicularis
Experimental: as §1
In the non-human primate study (#00213515), 24 non-human primates, cynomolgus monkeys, were used. The monkeys were immunized four times (1Y, 2Y, 3Y, and 4Y at days 1, 15, 29, and 43, respectively). Sera were collected at day 1 (pre), day 43, and day 59 ( Figure 4A ). There were four groups and 6 monkeys in each group. Group 1 was the control group, which was treated with only ISA 720 and ddwater. Groups 2, 3, and 4 were peptide PD-1Vaxx treatment groups and were treated with low-dose 0.5 mg/dose, medium-dose […], or high-dose […] peptide vaccine, respectively ( Figure 4B ), emulsified in ISA 720.
These observations were first noted beginning after the second or third dose and were more frequent in female monkeys compared to male monkeys. • b) After the recovery period, all APi2568-related clinical observations had either recovered or were in the process of recovering, with the exception of swollen hind limbs.

[3] = female, 2 mg/dose IM as PD1-Vaxx, day 43, mean
[4] = female, 5 mg/dose IM as PD1-Vaxx, day 1
[5] = female, 5 mg/dose IM as PD1-Vaxx, day 43, mean
[6] = male, 0.5 mg/dose IM as PD1-Vaxx, day 43, mean
[7] = male, 2 mg/dose IM as PD1-Vaxx, day 43, mean
[8] = male, 5 mg/dose IM as PD1-Vaxx, day 1
[9] = male, 5 mg/dose IM as PD1-Vaxx, day 43, mean

KLLSLIKGVIVHRLEGVEGPSLGAISLAPKAQIKESLRAEL [MVF-PD-1(92-110)]
plasma concentrations relative to the LLOQ ([1]; day 43, 0.5 mg/dose group (both sexes) and 2 mg/dose female monkeys): ≤ 6 fold | T1/2 mean value ([1]; day 43, 2 and 5 mg/dose male monkeys and a single 5 mg/dose female monkey): approximately 13 h | Cmax/D ([1]; female, 0.5 mg/dose IM as PD1-Vaxx, day 43, mean): 17.6 (ng/ml)/(mg/dose) | AUC(0-t)/D [1, 3]: 47.3 (ngh/ml)/(mg/dose) | Cmax/D [1, 3]: 6.92 (ng/ml)/(mg/dose) | Tlast [1, 3]: 8 h | AUC(0-t)/D [1, 4]: 3.79 (ngh/ml)/(mg/dose) | Cmax/D [1, 4]: 0.954 (ng/ml)/(mg/dose) | Tlast [1, 4]: 4 h | AUC(0-t) ([1]; female, 5 mg/dose IM as PD1-Vaxx, day 1, AUC calculable in 1 monkey/sex): 18.9 ng·h/mL | T1/2 ([1]; female, 5 mg/dose IM as PD1-Vaxx, day 43, calculable for a single female monkey): 19.6 h | AUC(0-t)/D [1, 5]: 266 (ngh/ml)/(mg/dose) | Cmax/D [1, 5]: 31.9 (ng/ml)/(mg/dose) | Tlast [1, 5]: 34 h | Tmax [1, 5]: 1 h | Cmax ([1]; female, cynomolgus monkey, plasma, im, 0.5 mg/dose, female, 0.5 mg/dose IM as PD1-Vaxx, day 43, plasma, mean (generally n = 3)): 8.81 ng/mL | Tmax ([1]; female, cynomolgus monkey, plasma, im, 0.5 mg/dose, read-out: Tmax): 2 h | AUC(0-t) ([1]; female, cynomolgus monkey, plasma, im, 2 mg/dose, female, 2 mg/dose IM as PD1-Vaxx, day 43, mean, one female had significantly lower exposure, read-out: AUC(0-t)): 94.5 ng·h/mL | Cmax ([1]; female, cynomolgus monkey, plasma, im, 2 mg/dose, female, 2 mg/dose IM as PD1-Vaxx, day 43, plasma, mean (generally n = 3)): 13.8 ng/mL | Tmax ([1]; female, cynomolgus monkey, plasma, im, 2 mg/dose, read-out: Tmax): 4 h | Cmax ([1]; female, cynomolgus monkey, plasma, im, 5 mg/dose, female, 5 mg/dose IM as PD1-Vaxx, day 1, plasma, mean as printed): 4.77 ng/mL | AUC(0-t) ([1]; female, cynomolgus monkey, plasma, im, 5 mg/dose, female, 5 mg/dose IM as PD1-Vaxx, day 43, mean, read-out: AUC(0-t)): 1330 ng·h/mL | Cmax ([1]; female, cynomolgus monkey, plasma, im, 5 mg/dose, female, 5 mg/dose IM as PD1-Vaxx, day 43, plasma, mean (generally n = 3)): 160 ng/mL | Tmax ([1]; female, cynomolgus monkey, plasma, im, 5 mg/dose, read-out: Tmax): 1 h | AUC(0-t)/D [1, 6]: 125 (ngh/ml)/(mg/dose) | Tlast [1, 6]: 8 h | AUC(0-t)/D [1, 7]: 247 (ngh/ml)/(mg/dose) | Tlast [1, 7]: 24 h | AUC(0-t)/D [1, 8]: 30.1 (ngh/ml)/(mg/dose) | Cmax/D [1, 8]: 2.01 (ng/ml)/(mg/dose) | Tlast [1, 8]: 24 h | AUC(0-t)/D [1, 9]: 693 (ngh/ml)/(mg/dose) | Cmax/D [1, 9]: 40.5 (ng/ml)/(mg/dose) | Tlast [1, 9]: 48 h | Tmax [1, 9]: 1 h | AUC(0-t) ([1]; male, cynomolgus monkey, plasma, im, 0.5 mg/dose, male, 0.5 mg/dose IM as PD1-Vaxx, day 43, mean, read-out: AUC(0-t)): 62.3 ng·h/mL | Tmax ([1]; male, cynomolgus monkey, plasma, im, 0.5 mg/dose, read-out: Tmax): 1 h | half-life ([1]; male, cynomolgus monkey, plasma, im, 2 mg/dose): 13.1 h | AUC(0-t) ([1]; male, cynomolgus monkey, plasma, im, 2 mg/dose, male, 2 mg/dose IM as PD1-Vaxx, day 43, mean, read-out: AUC(0-t)): 494 ng·h/mL | Tmax ([1]; male, cynomolgus monkey, plasma, im, 2 mg/dose, read-out: Tmax): 1 h | half-life ([1]; male, cynomolgus monkey, plasma, im, 5 mg/dose): 12.7 h | AUC(0-t) ([1]; male, cynomolgus monkey, plasma, im, 5 mg/dose, male, 5 mg/dose IM as PD1-Vaxx, day 1, AUC calculable in 1 monkey/sex, read-out: AUC(0-t)): 151 ng·h/mL | Cmax ([1]; male, cynomolgus monkey, plasma, im, 5 mg/dose, male, 5 mg/dose IM as PD1-Vaxx, day 1, plasma, mean as printed): 10.1 ng/mL | AUC(0-t) ([1]; male, cynomolgus monkey, plasma, im, 5 mg/dose, male, 5 mg/dose IM as PD1-Vaxx, day 43, mean, read-out: AUC(0-t)): 3460 ng·h/mL | Cmax ([1]; male, cynomolgus monkey, plasma, im, 5 mg/dose, male, 5 mg/dose IM as PD1-Vaxx, day 43, plasma, mean (generally n = 3)): 202 ng/mL | Tmax ([1]; male, cynomolgus monkey, plasma, im, 5 mg/dose, read-out: Tmax): 2 h | accumulation ratio (RA) ([1]; single female monkey, 5 mg/dose): 121 | accumulation ratio (RA) ([1]; single male monkey, 5 mg/dose): 16.3 | no-observed-adverse-effect level (NOAEL) ([2]; 0.5, 2, 5 mg/dose IM as PD1-Vaxx, male and female cynomolgus monkeys): could not be determined | clinical findings at or near the IM site of dose administration ([2]; 0.5, 2, and 5 mg/dose groups, first noted after second or third dose, more frequent in females): adverse swelling, ulceration, and/or abscess formation | induction of autoimmune responses ([2]; cynomolgus monkeys): has not been observed | safety (summary) ([2]; monkey 1st set): safe
